Here are results for one compound from US20130225603A1, “MDM2 INHIBITORS FOR TREATMENT OF OCULAR CONDITIONS” (SERRATA LLC, priority 2010, published 2013).

Structures are written as SMILES. Entries after “also recorded” stand apart in the source; their conditions may differ.

Data set [1] deals with retinal vasculature of mouse pups. Briefly: In vivo retinal vascular development assay (subcutaneous and periocular injection). As to the method: A technique described by Strombland et al. was modified to study the effects of Nutlin-3 on in vivo vascular development (see Stromblad S, Fotedar A, Brickner H, et al., J. Biol. Chem. 277:13371-13374 (2002), which is incorporated herein by reference. Briefly, racemic Nutlin was administered by subcutaneous injection in the nape of the neck or in the periocular area of each eye to wild type 129 S1-VIMJ (Jackson Laboratories, Bar Harbor, Me.) mouse pups within 12 hours of birth. The mice received a total of 4 (periocular experiments) or 5 (subcutaneous neck experiments) injections of either racemic Nutlin or 100% DMSO. The first injection of Nutlin was administered at a dose of 40 mg/kg while the rest were given at a dose of 80 mg/kg for experiments involving injections in the nape of the neck. A dose of 80 mg/kg was administered for all injections in the periocular series of experiments. The pups were euthanized on postnatal day 3 and the eyes were enucleated after the fused eyelids incised.
The eyes were then fixed in 4% paraformaldeheyde overnight and washed three times with PBS. After removing the cornea and lens, the hyaloidal (primitive) vasculature was removed and four radial incisions were made in the eyecup to flatten the retina/choroid/sclera complex. The choroid and sclera were removed from the retina and cut at the optic nerve. After the retinal wholemount was blocked with 5% bovine serum albumin, 5% normal donkey serum, and 0.5% TritonX-100 for 3 hours or overnight, the wholemount was incubated with a 1:200 dilution of GS-IB4 lectin overnight and mounted with Vectashield (Vector Laboratories). For double staining wholemount experiments, retinas were incubated with primary antibody overnight at 4° C., underwent 6 one hour washes with PBS-T, followed by incubation with secondary antibody overnight at 4° C., followed by 6 one hour washes with PBS-T prior to being cover-slipped with Vectashield. Using a fluorescent biomicroscope (Carl Zeiss Discovery V12, Thornwood, N.Y.) hyaloidal vessels, vessels connected to the optic nerve, on the surface of the retina, were dissected in a masked manner. A confocal laser (Carl Zeiss LSM 510 meta) was used to obtain images of the retinal vasculature.
We captured images with the same laser power, objective, gain, pinhole, and amplifier offset. The resultant images were masked to the analyst assessing the images. All analyzed images were captured with a 5× objective and then exported to Adobe Photoshop 7.0 (San Jose, Calif.) as high-resolution .tiff images. Using the Magic Wand tool and histogram function, the analyst recorded the number of pixels that best represented the retinal vasculature and omitted the residual hyaloidal (fetal) vasculature that was unable to be removed during dissection. Blood vessels assessed to be residual hyaloid were found at a different focal plane than retinal blood vessels and were usually connected to the optic nerve.

For data set [2], the system named is retinal vessels of adult mice. Briefly: In vivo adult retinal vessel assay (intravitreal injection). More on the design: species or system mouse. The conditions noted are these: five days after injection. As to the method:
Adult, three month old, 129 and C57/BL6/129S mice were anesthetized with Avertin and also given a drop of topical proparacaine 1% for local anesthesia. Using a stereo microscope, a glass capillary pipette was used to inject 1 μL of either vehicle or racemic Nutlin-3 into the vitreous of cavity of both eyes of each animal. Mice were then euthanized five days after injection. All procedures involving mice were approved and monitored by the Weill Medical College of Cornell University and Hospital for Special Surgery Animal Care and Use Committees. The eyes were then fixed in 4% paraformaldeheyde overnight and washed three times with PBS. After removing the cornea and lens, the hyaloidal (primitive) vasculature was removed and four radial incisions were made in the eyecup to flatten the retina/choroid/sclera complex. The choroid and sclera were removed from the retina and cut at the optic nerve. After the retinal wholemount was blocked with 5% bovine serum albumin, 5% normal donkey serum, and 0.5% TritonX-100 for 3 hours or overnight, the wholemount was incubated with a 1:200 dilution of GS-IB4 lectin overnight and mounted with Vectashield (Vector Laboratories). […]

For another data set, the system named is HUVECs. Briefly: Apoptosis of endothelial cells (HUVECs) in serum enriched media. In kind it is cell-based, human.
Data set [3] concerns HRMECs. In words: Cell viability/proliferation, HRMECs in serum. In kind it is cell-based, human. The conditions noted are these: racemic Nutlin-3. As to the method: Cells were seeded at a concentration of 2×10^5 for HUVECs and 2×10^4 for HUVSMCs in serum free media on 12 well plates after detachment. The cells were allowed to adhere overnight in growth media, and then incubated with X-VIVO media (Cambrex) with or without cytokines (10 ng/ml FGF-2 and 2 μg/ml heparin or 10 ng/ml VEGF-A). For HRMEC experiments, cells were seeded at a concentration of 1×10^5 and allowed to settle overnight in 6-cm plates coated with attachment factor (Cell Signaling, Danvers, Mass.). The next day, fresh 10% FBS and EBM medium was added. […] After incubation, HUVEC were detached with collagenase/EDTA and HUVSMC and HRMEC were detached with trypsin/EDTA. The cells were manually counted with a Hemacytometer (Hausser Scientific, Horsham, Pa.) using Trypan blue exclusion.

The test system of another data set is p53. In words: p53 expression in HRMECs. Format: cell-based, human. Particulars: racemic Nutlin-3, 10% FBS. As to the method:
HUVECs and HUVSMCs were incubated at 2×10^6 in X-VIVO media and HRMECs in EBM with 10% FBS under various conditions as reported in the results. Western blot extracts were prepared by lysing cells attached cells in cold RIPA buffer in the presence of protease inhibitors for HUVEC and HUVSMC and passive lysis buffer (Promega, Madison, Wis.) for HRMEC. After sonication and centrifugation to remove cell debris, the protein yield was quantified using the BCA protein assay kit (Pierce Biotechnology Inc., Rockford, Ill.). Normalized cell lysates were then mixed with sample buffer containing 2-mercaptoethanol and SDS and heated for 5 minutes at 95° C. Equal amounts of protein were run on SDS-polyacrylamide gels before being transferred to PVDF membranes. Binding of the primary antibody against p53, p21, and beta actin was detected with enhanced chemiluminescence reagent (Amersham) using HRP-conjugated secondary antibody (1:10,000, Amersham).

The test system of data set [4] is HRMECs. In words: Apoptosis of HRMECs in serum (TUNEL). The conditions noted are these: HRMECs in serum (10% FBS). In kind it is cell-based, human. The procedure:
HUVECs were plated on collagen coated plastic bottom culture dishes (MatTek Corp., Ashland, Mass.) overnight. […] HRMEC were treated with 15 μM of racemic Nutlin for 24 hours in 10% FBS. The TUNEL assay was performed following instructions provided with the kit (Roche Applied Science, Indianapolis, Ind.). Representative images of the HRMEC experiment were provided with a 4× objective using an Olympus AX70 fluorescence microscope following the addition of a nuclear counter stain. For HUVEC experiments, 5 representative fields with a 20× objective using a Zeiss confocal microscope were captured. 2 masked observers performed cell counts. For wholemount retina staining, TUNEL solution was incubated for 48 hours diluted in PBS plus 0.3% Triton-X 100 after lectin staining.

On to `COc1ccc(C2=NC(c3ccc(Cl)cc3)C(c3ccc(Cl)cc3)N2C(=O)N2CCNC(=O)C2)c(OC(C)C)c1` (racemic) [Nutlin-3, (±)-4-[4,5-bis(4-chlorophenyl)-2-(2-isopropoxy-4-methoxy-phenyl)-4,5-dihydro-imidazole-1-carbonyl]-piperazin-2-one], for which the “retinal vasculature compared to sham injected mice (images)” value in data set [1] (neonatal mice, periocular injection, FIG. 6E) is “less retinal vasculature”; in data set [1] (neonatal mice, subcutaneous injection in the nape of the neck, FIG. 6B) it was “abrogated”. For the same compound, the “fewer blood vessels compared to the sham-injected mice” value in data set [1] (neonatal mice, periorbital (periocular) injection, 80 mg/kg, postnatal day 3, p<0.01) is listed as 43.8%. In data set [1] (neonatal mice, retinal wholemounts), the “calibre of retinal vessels affected” value was “loss of smaller caliber vessels; also recorded: preferentially targeted capillaries and smaller blood vessels”. For the same compound, the “reduction in the amount of retinal vessels compared to sham injected mice” value in data set [1] (neonatal mice, subcutaneous injection in the nape of the neck, 40 then 80 mg/kg, postnatal day 3, p<0.05) is 27.4%. In addition, the “TUNEL positive cells in the retinal vasculature” value in data set [1] (neonatal mouse retinal wholemount, GS-IB4 lectin co-staining, rare event) was “TUNEL positive cells that co-localized to the retinal endothelium”. Moreover, the “thickness of the neuronal cell layers of the neurosensory retina (hematoxylin and eosin)” value in data set [2] is reported as “did not observe any gross changes in the thickness of the neuronal cell layers”. The “retinal vasculature of adult mice compared to control” value in data set [2] (p>0.05) is “no reduction of the retinal vasculature; also recorded: no difference”. In addition, the “apoptosis of endothelial cells” value in the data set with HUVECs is “do not undergo apoptosis”. Moreover, the HRMEC cell viability entry in the data set on HRMECs [3] is “sufficient to inhibit cell viability”. For the same compound, in the data set on p53, the “p53 expression in HRMECs” value is “upregulation of p53”. Besides, in the data set on HRMECs [4], the “apoptosis in HRMECs” value is on record as “induces apoptosis”.
